Measurements from ChEMBL document CHEMBL1201862, “PubChem BioAssay data set” (2004).
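Compound exposure: 48 hours, 5 concentrations, 96-well plates. Abbreviation: GI50, concentration required for 50% inhibition of growth.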 Activity calls are given as the source filed them. Cut-off read from the data, not from the text of the source: active = GI50 up to about 1.1 µM and inactive = higher.

Assays:
Assay in all cases: growth of human tumour cells (NCI), 48 h
HCT-116 = tested on: HCT-116
HCT-15 = tested on: HCT-15
SNB-75 = tested on: SNB-75
UACC-257 = tested on: UACC-257
SW-620 = tested on: SW-620
NCI-H522 = tested on: NCI-H522
MDA-MB-231 = tested on: MDA-MB-231
SNB-19 = tested on: SNB-19
T47D = tested on: T47D
SK-MEL-28 = tested on: SK-MEL-28
CAKI-1 = tested on: CAKI-1
SF-539 = tested on: SF-539
NCI-H23 = tested on: NCI-H23
EKVX = tested on: EKVX
OVCAR-3 = tested on: OVCAR-3
IGROV-1 = tested on: IGROV-1
SF-268 = tested on: SF-268
HOP-62 = tested on: HOP-62
ACHN = tested on: ACHN
BT-549 = tested on: BT-549
OVCAR-4 = tested on: OVCAR-4
SF-295 = tested on: SF-295
SN12C = tested on: SN12C
U-251 = tested on: U-251
SK-MEL-2 = tested on: SK-MEL-2
NCI/ADR-RES = tested on: NCI/ADR-RES
NCI-H460 = tested on: NCI-H460
HT-29 = tested on: HT-29
MDA-MB-435 = tested on: MDA-MB-435
KM12 = tested on: KM12
HL-60 = tested on: HL-60
MCF7 = tested on: MCF7
PC-3 = tested on: PC-3
SR = tested on: SR
786-0 = tested on: 786-0
A498 = tested on: A498
Malme-3M = tested on: Malme-3M
RXF 393 = tested on: RXF 393
CCRF-CEM = tested on: CCRF-CEM
SK-MEL-5 = tested on: SK-MEL-5
MOLT-4 = tested on: MOLT-4
MDA-N = tested on: MDA-N
NCI-H226 = tested on: NCI-H226
A549 = tested on: A549
LOX IMVI = tested on: LOX IMVI
DU-145 = tested on: DU-145
M14 = tested on: M14
UO-31 = tested on: UO-31
OVCAR-8 = tested on: OVCAR-8
OVCAR-5 = tested on: OVCAR-5
K562 = tested on: K562
COLO 205 = tested on: COLO 205
Hs-578T = tested on: Hs-578T
RPMI-8226 = tested on: RPMI-8226
HOP-92 = tested on: HOP-92
UACC-62 = tested on: UACC-62
HCC 2998 = tested on: HCC 2998
SK-OV-3 = tested on: SK-OV-3
TK-10 = tested on: TK-10

Measured: GI50

O=C(Nc1ccc2c(c1)oc(=O)c1ccccc12)C(Cl)Cl
71.1 µM: HCT-15
inactive: HCT-116 69.3 µM | SNB-75 > 100 µM | UACC-257 > 100 µM | SW-620 > 100 µM | NCI-H522 > 100 µM | MDA-MB-231 > 100 µM | SNB-19 27.3 µM | T47D > 100 µM | SK-MEL-28 > 100 µM | CAKI-1 > 100 µM | SF-539 69.7 µM | NCI-H23 > 100 µM | EKVX 85.5 µM | OVCAR-3 28.8 µM | IGROV-1 > 100 µM | SF-268 > 100 µM | HOP-62 62.1 µM | ACHN > 100 µM | BT-549 > 100 µM | OVCAR-4 > 10 µM | SF-295 > 100 µM | SN12C > 100 µM | U-251 60.1 µM | SK-MEL-2 > 100 µM | NCI/ADR-RES > 100 µM | NCI-H460 27.6 µM | HT-29 28.1 µM | MDA-MB-435 > 100 µM | KM12 33.2 µM | HL-60 12.2 µM | MCF7 34.8 µM | PC-3 76.4 µM | SR 45 µM | 786-0 > 100 µM | A498 > 100 µM | Malme-3M > 100 µM | RXF 393 > 100 µM | CCRF-CEM > 100 µM | SK-MEL-5 > 100 µM | MOLT-4 54.7 µM | MDA-N > 100 µM | NCI-H226 > 100 µM | A549 39.1 µM | LOX IMVI > 100 µM | DU-145 > 100 µM | M14 > 100 µM | UO-31 > 100 µM | OVCAR-8 > 100 µM | OVCAR-5 > 100 µM | K562 51.2 µM | COLO 205 66.2 µM | Hs-578T > 100 µM | RPMI-8226 14.3 µM | HOP-92 > 100 µM | UACC-62 36.6 µM | HCC 2998 63.5 µM

COC(=O)CCc1cc(OC)c(O)c(C(Cc2ccc(OC)c(OC)c2)C(=O)OC)c1 (stereo not given)
inactive: HCT-116 > 100 µM | SNB-75 > 100 µM | UACC-257 > 100 µM | SW-620 > 100 µM | NCI-H522 > 100 µM | MDA-MB-231 > 100 µM | SNB-19 > 100 µM | SK-OV-3 > 100 µM | T47D > 100 µM | SK-MEL-28 > 100 µM | SF-539 > 100 µM | NCI-H23 > 100 µM | EKVX > 100 µM | OVCAR-3 > 100 µM | IGROV-1 > 100 µM | SF-268 > 100 µM | HOP-62 > 100 µM | ACHN > 100 µM | BT-549 > 100 µM | OVCAR-4 > 100 µM | SF-295 > 100 µM | SN12C > 100 µM | U-251 > 100 µM | SK-MEL-2 > 100 µM | NCI/ADR-RES > 100 µM | NCI-H460 > 100 µM | HT-29 > 100 µM | MDA-MB-435 > 100 µM | KM12 > 100 µM | HL-60 > 100 µM | MCF7 > 100 µM | PC-3 > 100 µM | SR > 100 µM | TK-10 > 100 µM | 786-0 > 100 µM | A498 > 100 µM | Malme-3M > 100 µM | RXF 393 > 100 µM | CCRF-CEM > 100 µM | SK-MEL-5 > 100 µM | MOLT-4 > 100 µM | MDA-N > 100 µM | NCI-H226 > 100 µM | A549 > 100 µM | LOX IMVI > 100 µM | DU-145 > 100 µM | M14 > 100 µM | UO-31 > 100 µM | OVCAR-8 > 100 µM | OVCAR-5 > 100 µM | K562 > 100 µM | COLO 205 > 100 µM | Hs-578T > 100 µM | RPMI-8226 > 100 µM | HOP-92 > 100 µM | UACC-62 > 100 µM | HCC 2998 > 100 µM
> 100 µM: HCT-15
